According to patent US20210179680A1, “POLYPEPTIDE, DERIVATIVES THEREOF, AND APPLICATION THEREOF IN PREPARATION OF DRUGS HAVING RESISTANCE TO PULMONARY FIBROSIS” (priority 2016, published 2021):
Bridge positions count the residues as written; N and C are the ends. Square brackets hold non-standard residues; d marks the D form. Peptide text beside a SMILES is read from it. S5 = C=CCCC[C@](C)(N)C(=O)O

Legend:
[1] = α-helix ratio of polypeptides by circular dichroism; assay type: physicochemical; conditions: PBS solution, 1 mg/mL
Protocol: The α-helix ratio of the polypeptide was measured by a circular dichromatograph (purchased from Jasco, Japan). The polypeptides MR2, S1, S2, S3, S4, S5, S6, S7, S8, S9, S10 and S11 prepared in Example 1 were dissolved in PBS solution, and the working concentration of the circular dichromatograph was adjusted to 1 mg/mL. […] Among them, the α-helix ratio refers to the percentage of the number of peptide segments of the polypeptide that maintains the alpha helix of the secondary structure in the peptide segments of the total polypeptide.

[2] = test system: mice with bleomycin-induced pulmonary fibrosis; assay: Survival rate of mice with bleomycin-induced pulmonary fibrosis; assay type: in vivo, C57BL/6 mice; conditions: Table 3 groups: 2 mg/kg i.p., 10th to 28th day after modeling, twice a week
Protocol: (§1) Male C57BL/6 mice were fasted overnight, then anesthetized with 45 mg/kg sodium pentobarbital by injection intraperitoneally (i.p.), and intratracheally injected with bleomycin at a dose of 3 U/kg. The specific operation steps are as follows: cut the neck skin of the mouse with as little trauma as possible, expose the trachea with the assistance of elbow ophthalmic forceps, puncture the trachea and inject about 50 μL of bleomycin into the trachea with a microsyringe, rotate the mouse quickly and stand it upright for 5 minutes in order to make bleomycin evenly enter the left and right lobe, thereby constructing an animal model. The whole operation was performed at a surgical table at about […]. Mice in the sham operation group were intratracheally injected with an equal amount of physiological saline for injection.
The animal model with pulmonary fibrosis was prepared according to the method described in Example 2. The peptide therapy was started from the 10th day after modeling (the treatment groups are shown in Table 3), and the time was calculated from the 10th day after modeling to count the mortality rate. The death situation of each group of experimental animals was counted and calculated daily. […] The survival rate is the percentage of the number of mice that survived accounting for the number of mice in the whole group. Results are shown in FIG. 6-1, FIG. 6-2 and Table 4. […] In FIG. 6-1 and FIG. 6-2, “##” represents that P value is less than 0.01 when the survival rate of administration group was compared with that of the sham operation group; “*” represents that P value is less than 0.05 when the survival rate of administration group was compared with that of the bleomycin group; “**” represents that P value is less than 0.01 when the survival rate of administration group was compared with that of bleomycin group; and “i.p.” refers to intraperitoneal injection.
The animal model of pulmonary fibrosis was prepared according to the method described in Example 2. The polypeptide treatment was started from the 10th day after modeling (the treatment groups are shown in Table 9), and the time was calculated from the 10th day after modeling to count the mortality rate. The mortality rate of each group of experimental animals was recorded and calculated daily. If none of the animals in a group died, the survival rate of the group is 100%. If all the animals in a group died, the survival rate is 0%. […] In FIG. 12, “##” represents that P value is less than 0.01 when the survival rate of the administration groups were compared with that of the sham operation group; “*” represents that P value is less than 0.05 and “**” represents that P value is less than 0.01 when the survival rate of the administration groups were compared with bleomycin group.

[3] = test system: mice with bleomycin-induced pulmonary fibrosis; assay: Hydroxyproline content in lung of mice with pulmonary fibrosis; assay type: in vivo, C57BL/6 mice; conditions: Table 3 groups, 2 mg/kg i.p.; left lung lobes; chloramine-T method
Protocol: as §1
(§2) Hydroxyproline accounts for 13.4% (w/w) of collagen, and extremely small amount of elastin, while it is absent in other proteins. […] Pulmonary fibrosis models were prepared according to the method described in Example 2 and administered in groups according to Table 3. The content of hydroxyproline in the lobes of left lung of the animals was measured 28 days later, and the condition of pulmonary fibrosis was evaluated.
The specific method is as follows: the mice in the animal model prepared in Example 2 was feed in a SPF animal room and treated with polypeptide according to the dosing schedule of Table 3, and all left lobes of lung of the experimental animal was taken on the 21st day after the animal model was constructed and the wet weight was recorded. Then 10% (w/w) tissue homogenate was prepared by ultrasonic homogenization using physiological saline. About 150 μL of homogenate supernatant was taken, and 500 μL of alkali hydrolysate was added (provided by Hydroxyproline alkaline hydrolysis kit of Nanjing Jiancheng Bioengineering Technology Co., Ltd.). After vortex mixing, the mixture was treated with alkaline hydrolysis for 40 min under conditions of 120° C., 0.1 Kpa. After adjusting the pH value, the volume was held constant, and the supernatant was taken after performing activated carbon treatment. The hydroxyproline was determined according to the chloramine-T method (the method of the present example refers to the instruction provided with kit, which was purchased from Nanjing Jiancheng Bioengineering Technology Co., Ltd.). […] In FIG. 10, “##” represents that P value is less than 0.01 when comparing the content of hydroxyproline in the administration group with that in the sham operation group; and “*” represents that P value is less than 0.05 and“**” represents that P value is less than 0.01 when comparing the content of hydroxyproline in the administration group with that in bleomycin group.
as §2, with “collagen, and accounts for extremely small” for “collagen, and extremely small”, “in the all lobes of” for “in the lobes of”
The specific method is as follows: the mice in the animal model prepared in Example 2 was feed in an SPF animal room and treated with polypeptide according to the dosing schedule of Table 3, and all the left lobes of lung of the experimental animal was taken on the 21st day after the animal model was constructed and the wet weight was recorded. Then 10% (w/w) tissue homogenate was prepared by ultrasonic homogenization using physiological saline. About 150 μL of homogenate supernatant was taken, and 500 μL of alkali hydrolysate was added (provided by Hydroxyproline alkaline hydrolysis kit of Nanjing Jiancheng Bioengineering Technology Co., Ltd.). After vortex mixing, the mixture was treated with alkaline hydrolysis for 40 min under conditions of 120° C., 0.1 Kpa. […]

Row | Structure (SMILES) | α-helicity (%) [1] [%] | α-helix ratio compared with polypeptide MR2 (in words) [1] | Survival rate (%) 7 days [2] [%] | Survival rate (%) 14 days [2] [%] | Survival rate (%) 21 days [2] [%] | Survival rate (%) 28 days [2] [%] | hydroxyproline content (μg/mg protein) [3] [μg/mg protein]
1 | CSCC[C@H](NC(=O)[C@H](CC(C)C)NC(=O)[C@@H](N)Cc1c[nH]cn1)C(=O)N[C@@]1(C)CCCC=CCCC[C@@](C)(C(=O)N[C@@H](C)C(=O)N[C@@H](CCCCN)C(=O)N[C@@H](CCCCN)C(=O)N[C@@H](CC(C)C)C(=O)N[C@@H](CCCCN)C(=O)N[C@@H](CCCCN)C(=O)N[C@@H](CCCNC(=N)N)C(=O)O)NC(=O)[C@H]([C@@H](C)O)NC(=O)[C@H](Cc2ccccc2)NC(=O)[C@H](CS)NC1=O [S4, His-Leu-Met-S5-Cys-Phe-Thr-S5-Ala-Lys-Lys-Leu-Lys-Lys-Arg] (H-HLM[S5]CFT[S5]AKKLKKR-OH; staple 4-8; N-terminus and C-terminus assumed) | 33.6 | significantly higher than that of polypeptide MR2 | 100 | 86.67 | 80 | 80 | 0.65
2 | CSCC[C@H](NC(=O)[C@H](CC(C)C)NC(=O)[C@@H](N)Cc1c[nH]cn1)C(=O)N[C@@H](C)C(=O)N[C@@]1(C)CCCC=CCCC[C@@](C)(C(=O)N[C@@H](CCCCN)C(=O)N[C@@H](CCCCN)C(=O)N[C@@H](CC(C)C)C(=O)N[C@@H](CCCCN)C(=O)N[C@@H](CCCCN)C(=O)N[C@@H](CCCNC(=N)N)C(=O)O)NC(=O)[C@H](CS)NC(=O)[C@H]([C@@H](C)O)NC(=O)[C@H](Cc2ccccc2)NC1=O [S5, His-Leu-Met-Ala-S5-Phe-Thr-Cys-S5-Lys-Lys-Leu-Lys-Lys-Arg] (H-HLMA[S5]FTC[S5]KKLKKR-OH; staple 5-9; N-terminus and C-terminus assumed) | 69.1 | significantly higher than that of polypeptide MR2 | 100 | 100 | 93.33 | 93.33 | 0.6575
3 | CSCC[C@H](NC(=O)[C@H](CC(C)C)NC(=O)[C@@H](N)Cc1c[nH]cn1)C(=O)N[C@@H](C)C(=O)N[C@@H](CS)C(=O)N[C@@]1(C)CCCC=CCCC[C@@](C)(C(=O)N[C@@H](CCCCN)C(=O)N[C@@H](CC(C)C)C(=O)N[C@@H](CCCCN)C(=O)N[C@@H](CCCCN)C(=O)N[C@@H](CCCNC(=N)N)C(=O)O)NC(=O)[C@H](C)NC(=O)[C@H](CS)NC(=O)[C@H]([C@@H](C)O)NC1=O [S6, His-Leu-Met-Ala-Cys-S5-Thr-Cys-Ala-S5-Lys-Leu-Lys-Lys-Arg] (H-HLMAC[S5]TCA[S5]KLKKR-OH; staple 6-10; N-terminus and C-terminus assumed) | 36.4 | significantly higher than that of polypeptide MR2 | 100 | 86.67 | 80 | 80 | 0.8337
4 | CSCC[C@H](NC(=O)[C@H](CC(C)C)NC(=O)[C@@H](N)Cc1c[nH]cn1)C(=O)N[C@@H](C)C(=O)N[C@@H](CS)C(=O)N[C@@H](Cc1ccccc1)C(=O)N[C@@]1(C)CCCC=CCCC[C@@](C)(C(=O)N[C@@H](CC(C)C)C(=O)N[C@@H](CCCCN)C(=O)N[C@@H](CCCCN)C(=O)N[C@@H](CCCNC(=N)N)C(=O)O)NC(=O)[C@H](CCCCN)NC(=O)[C@H](C)NC(=O)[C@H](CS)NC1=O [S7, His-Leu-Met-Ala-Cys-Phe-S5-Cys-Ala-Lys-S5-Leu-Lys-Lys-Arg] (H-HLMACF[S5]CAK[S5]LKKR-OH; staple 7-11; N-terminus and C-terminus assumed) | 51.0 | significantly higher than that of polypeptide MR2 | 100 | 100 | 93.33 | 93.33 | 0.655
5 | CSCC[C@H](NC(=O)[C@H](CC(C)C)NC(=O)[C@@H](N)Cc1c[nH]cn1)C(=O)N[C@@H](C)C(=O)N[C@@H](CS)C(=O)N[C@@H](Cc1ccccc1)C(=O)N[C@H](C(=O)N[C@@]1(C)CCCC=CCCC[C@@](C)(C(=O)N[C@@H](CCCCN)C(=O)N[C@@H](CCCCN)C(=O)N[C@@H](CCCNC(=N)N)C(=O)O)NC(=O)[C@H](CCCCN)NC(=O)[C@H](CCCCN)NC(=O)[C@H](C)NC1=O)[C@@H](C)O [S8, His-Leu-Met-Ala-Cys-Phe-Thr-S5-Ala-Lys-Lys-S5-Lys-Lys-Arg] (H-HLMACFT[S5]AKK[S5]KKR-OH; staple 8-12; N-terminus and C-terminus assumed) | 29.1 | significantly higher than that of polypeptide MR2 | 100 | 100 | 93.33 | 86.67 | 0.825
6 | CSCC[C@H](NC(=O)[C@H](CC(C)C)NC(=O)[C@@H](N)Cc1c[nH]cn1)C(=O)N[C@@H](C)C(=O)N[C@@H](CS)C(=O)N[C@@H](Cc1ccccc1)C(=O)N[C@H](C(=O)N[C@@H](CS)C(=O)N[C@@]1(C)CCCC=CCCC[C@@](C)(C(=O)N[C@@H](CCCCN)C(=O)N[C@@H](CCCNC(=N)N)C(=O)O)NC(=O)[C@H](CC(C)C)NC(=O)[C@H](CCCCN)NC(=O)[C@H](CCCCN)NC1=O)[C@@H](C)O [S9, His-Leu-Met-Ala-Cys-Phe-Thr-Cys-S5-Lys-Lys-Leu-S5-Lys-Arg] (H-HLMACFTC[S5]KKL[S5]KR-OH; staple 9-13; N-terminus and C-terminus assumed) | 44.0 | significantly higher than that of polypeptide MR2 | 100 | 93.33 | 93.33 | 93.33 | 0.7212
